What was measured:
[1] = tested on: Tp1_214–224-specific CD8+ T cell clones; assay: 4-hour 111Indium release cytotoxicity assay with peptide-pulsed target cells; assay type: cell-based, cattle; conditions: 22 CD8+ T cell clones; example in Fig S6
Source text: Twenty-two Tp1_214–224-specific CD8^+ T cell clones, derived from 2 T. parva-immune animals (641 and 633), were examined for their ability to recognize a series of Ala-substituted versions of Tp1_214–224 (as detailed in Fig 1), using a cytotoxicity assay. All clones gave near maximal levels of killing of cells pulsed with the native peptide (ranging from 21% to 100% for different clones) down to a concentration of 10 pg/ml (example shown in Fig S6). The results obtained with the Ala-substituted peptides tested at 1 ng/ml (i.e. well above the minimal concentration required to obtain maximal killing), are summarized in Fig 5. The most striking finding was the abolition (or near abolition) of recognition by all T cell clones of 2 or more of the peptides substituted at positions 6–9. Based on major effects on recognition of peptides substituted at positions 6, 7 and 8, the 22 clones fell into 4 groups each with broadly similar specificity. Nine clones were profoundly influenced by residues 6 and 8, seven clones by residues 7 and 8, four clones by residue 7 and two clones by residue 8. […] Substitutions at positions 3 and 4 also had substantial effects on recognition by some clones.
Figure 5 Effects of single alanine substitutions in the Tp1_214–224 epitope on recognition by specific CD8^+ T cell clones. […]

responding T cells = conditions: T. parva-immune A18-homozygous animals; cited from earlier work
Source text: Several CD8^+ T cell epitopes in T. parva have been identified recently, [17], [18]. […] This allele is expressed alone on the haplotype designated A18, which is common in the British Friesian breed. Although this is not the only single gene class I MHC haplotype in cattle, it remains an unu ...

N*01301 = assay: RMA-S MHC stabilization assay (peptide binding, pBL50); design: species or system cattle; conditions: RMA-S cells transfected with N*01301; peptides 0.1 nM to 1 mM; surface N*01301 detected with mAb IL-A88 by flow; reference peptide TIMPKDIQL
Experimental: A 9mer self-peptide (TIMPKDIQL) shown to have a high binding affinity to N*01301 was used throughout as a positive control in flow-based MHC stabilization assays (see Materials and Methods for details). In order to systematically explore the relative contribution to binding affinity made by amino acids at each position, a sequential alanine-scan of the self-peptide was made (Fig. 1A). Dose/FI curves were created for each peptide (using peptides at concentrations between 0.1 nM and 1 mM) and presented as semi-logarithmic plots as in previous studies ([25], supporting information (SI) Fig. S1). The high binders have low half-maximal binding level (BL50) values (high pBL50) and the low binders have high BL50 values (low pBL50). […]
RMA-S is a mouse lymphoma cell line with a deficiency in MHC class I antigen processing which has been used extensively to study binding of peptides to MHC class I [37]. […] Results are expressed as fluorescence index (FI) values. These were calculated as the test mean fluorescence intensity (MFI) minus the no-peptide isotype control MFI divided by the no-peptide N*01301-stained control MFI minus the no-peptide isotype control MFI. The half-maximal binding level (BL50), which is the peptide concentration yielding the half-maximal FI of the reference peptide in each assay, was calculated and presented as pBL50 (–logBL50). […]

Row | Sequence | peptide concentration down to which all clones gave near maximal killing [1] [pg/mL] | share of responding T cells specific for the peptide (responding T cells) | binding to N*01301 (pBL50 class) (N*01301)
1 | VGYPKVKEEML [Tp1_214–224] | 10 | over 75% | 
2 | TIMPKDIQL |  |  | high (for high binding >5 (BL50 <10^−5))

— paper PMC2954893, “MHC Class I Bound to an Immunodominant Theileria parva Epitope Demonstrates Unconventional Presentation to T Cell Receptors” (PLoS Pathogens, 2010)
